Reference: patent US20260240807A1, “UROLITHINS FOR IMPROVING CARDIAC FUNCTION AND HEALTH” (Amazentis SA, priority 2022, published 2026)

How the values were obtained:
[1] = test system: Wistar male rats with myocardial infarction (permanent LAD occlusion); assay: Echocardiography and heart mass after myocardial infarction (LAD ligation); type: in vivo, rat; conditions: MI rats, 25 mg/kg daily by gavage for 2 months starting one week after MI, vs MI vehicle
Method: The goal of the study is to assess urolithin A treatment effect on heart function after myocardial infarction. […] Myocardial infarction (MI) was induced in 6-week old Wistar male rats from groups 1, 2, and 3 (Table 3), by permanent occlusion of Left Anterior Descending coronary artery (ligation was performed at Do).
Rats were anesthetized with an intraperitoneal (IP) injection of Medetomidine (0.5 mg/kg) and ketamine (50 mg/kg), intubated and ventilated at 10 mL/kg tidal volume and 70-80 cycles/min. Body temperature were maintained between 36.5° C. and 37.5° C. via a thermoregulated heating pad connected to a rectal probe. Rats were placed in supine position, chest-shaved and prepared for standard surgical conditions. A left lateral thoracotomy was carefully performed so as to expose the heart. Then, a suture was placed around the LAD (4/0 Silk, Ethicon), around 2 mm below the left atrium and close to the interventricular junction, in order to obtain infarct size (IS) near 40% of the total left ventricular (LV) area. Chest was closed, air was expelled from the rib cage to avoid pneumothorax and quick reanimation was performed using atipamezole hydrochloride (IM, 0.5 mg/ml, Zoetis).
Animals from group 1 were subjected to the same protocol as MI groups. However, after the left lateral thoracotomy exposing the heart, the rib cage were closed without passing the suture thread around LAD.
Urolithin A or vehicle were administered by gavage at 25 mg/kg starting one week after myocardial infraction. Heart and plasma samples were collected at each time point. Ejection Fraction (EF), Fractional Shortening (FS), Isovolumic relaxation time (IVRT) were measured by echocardiography at 1 month and 2 month time points to evaluate heart function. […]
Rats were anesthetized with 4% isoflurane in 50% oxygen-50% air mixture and maintained with 2% isoflurane during the procedure. […] Body temperature was monitored and maintained between 36.5-37.5° C. via a rectal probe connected to the thermoregulated heating pad.
Standard B-mode (Brightness-mode) and M-mode (Motion-mode) images of the heart were obtained in the two-dimensional (2D) parasternal long axis view (PSLA). LV parameters will be measured and calculated as the mean of 3 consecutive cardiac cycles by a single blinded trained operator. • Left Ventricular function LV function is calculated using the LV dimensions parameters previously described. • FS=fractional shortening=[(LVIDd−LVIDs)/LVIDd]*100. It is a calculation based on the difference of dimensions between systole and diastole measured in M-mode. […] It is a calculation based on the difference of volumes between systole and diastole measured in B-mode and M-mode. […]

[2] = test system: gene sets (Cellular Components) linked to mitochondrial function in heart tissue; assay: RNA-seq gene set enrichment analysis of heart sections, MI rats; type: in vivo, rat; conditions: MI+UA vs MI rats, 25 mg/kg PO
Method: Heart sections from rats in the groups described in FIG. 1 (Example 1) have been prepared using a microtome, deparaffinized and RNA extracted using the following kit (RNAeasy FFPE 76504, Qiagen). Upon extraction, RNA was quality controlled with Agilent Fragment Analyzer System.
Library preparation was performed using Strand-specific cDNA library and following the steps here indicated: • rRNA depletion. • mRNA fragmentation. • Random primed cDNA synthesis (strand-specific) • Adapter ligation and adapter specific PCR amplification RNA-seq run was executed with the NovaSeq6000 using S4 flowcells with 2×150 bp.
QC and preprocessing of raw sequencing reads was performed using an in-house QC pipeline. […] High quality RNA-seq read pairs were mapped to the Ensembl rat reference genome
Reads with a minimum PHRED score of 15, a minimum length of 15 bp, and a minimum unqualified percent limit of 40 (40%) were retained for downstream analysis. […]
Gene Set Enrichment Analysis (GSEA) (Subramanian, et al. Proc Natl Acad Sci USA 2005, 102 (43), 15545-50) was performed for characterizing complex relations of gene expression changes with gene ontologies (cellular components), under different biological conditions. […] Gene ranking information is transformed to pathway level to assign statistical significance for each analyzed gene set. […]

Old C57BL/6 mice [3] = assay: Echocardiography in old mice (age-related heart dysfunction); type: in vivo, mouse; conditions: old mice (26 months), chow diet with urolithin A 50 mg/kg for 2 months
Method: (§1) The goal of the study is to evaluate urolithin treatment effect age-related heart dysfunction. […] Old C57BL/6 mice (26 months) were used as model to reproduce natural decline in heart function with aging. Chow diet with and without urolithin A was administered for 2 months at 50 mg/kg. Post-mortem heart muscles, skeletal muscles, and plasma samples post-mortem were collected at the end of the study. Ejection Fraction (EF), Fractional Shortening (FS) were measured by echocardiography. Muscle contractility was also measured. Analysis of both heart and skeletal muscle function were conducted at the end of the study.

Old C57BL/6 mice [4] = assay: Skeletal muscle function (muscle contractility) in old mice; type: in vivo, mouse; conditions: old mice (26 months), chow diet with urolithin A 50 mg/kg for 2 months
Method: as §1

[5] = test system: heart mitochondria of old C57BL/6 mice; assay: Transmission electron microscopy of heart mitochondria in old mice; type: in vivo, mouse; conditions: 50 mg/kg by gavage for 2 months, vs old vehicle
Method: (§2) The goal of the study was to evaluate urolithin treatment effect on age-related heart dysfunction. Old C57BL/6 mice (24 months at the end of the study) were used as model to reproduce natural decline in heart function with aging and administered by gavage for 2 months with either Urolithin A at 50 mg/kg (Old UA) or vehicle (Old Vehicle). Young mice (18 weeks-old at the end of the study) were administered with vehicle for 2 months. Post-mortem heart muscles, were collected at the end of the study.
Muscle samples from animals as described in example 2 were fixed in 2% glutaraldehyde solution 0.1 M Sorenson's buffer (pH 7.3). These samples were later postfixed in 1% osmium tetroxide for 8 min [pulse microwaved (MW), 100 watts (W)] and rinsed in distilled H2O (3×150 W 40 s per step). Samples were dehydrated in a graded series of acetone (25%; 50%; 75%; 3× 100%; 150 W 40 seconds per step) before being impregnated with increasing concentrations of epoxy resin (TAAB medium resin) in acetone (25%; 50%; 75%; 3×100%; 300 W 3 min per step). The samples were then embedded in 100% fresh resin and left to polymerize at 60° C. in a conventional oven for a minimum of 24 h.
All resin blocks were trimmed using a razor blade to form a trapezoid block face. Sections were cut in a longitudinal or transverse orientation on an ultramicrotome (Wolf et al., 2019) using a diamond knife. Semithin sections (0.5 μm) were stained with toluidine blue and viewed on a light microscope (LM) to verify orientation of tissue. Ultrathin sections (70 nm) were then cut and picked up onto copper grids. Sections from blocks were stained with 1% uranyl acetate (30 min) and 3% lead citrate (7 min). All sections were examined using a HT7800 120 kV TEM (Hitachi). Digital micrographs were captured using an EMSIS Xarosa CMOS Camera with Radius software.
These samples were later postfixed in 1% osmium tetroxide during 1 h, dehydrated within an increasing concentration of acetone. […]
Individual heart mitochondria from 3 Young vehicle, 3 Old vehicle and 3 Old UA O-AL mice were manually traced in transverse orientations using ImageJ software (NIH) (https://imagej.nih.gov/ij/) and to quantify the following morphological and shape descriptors: area (μm2), perimeter (μm), circularity 4π×(area/perimeter2), aspect ratio ((major axis)/(minor axis)): the aspect ratio being a measure of the length to width ratio, form factor ((perimeter)/(4π×surface)): a measure sensitive to the complexity and the branched appearance of the mitochondria, Feret's diameter (the longest distance (μm) between two points of the mitochondria studied) and minimum Feret diameter (corresponds to the smallest diameter of the mitochondria) (Picard et al., 2012). […]

[6] = test system: gene sets (Cellular Components) repressed with aging in heart; assay: RNA-seq gene set enrichment analysis of heart, old mice; type: in vivo, mouse; conditions: old mice treated with UA 50 mg/kg for 2 months vs old vehicle
Method: as §2
RNA-seq analysis from samples derived from example 3 has been performed as described for example 1.
A Gene set enrichment analysis was performed looking at gene set (i.e., biological pathways) belonging to the category “Cellular Components”.

[7] = test system: mitochondrial complex II enzyme SDH; assay: Succinate dehydrogenase activity staining of heart sections; type: in vivo, mouse; conditions: old mice, 50 mg/kg by gavage for 2 months, vs old vehicle control
Method: as §2
Hearts in OCT were cut into sections of […] using a cryostat. Sections were then incubated in a solution containing nitroblue tetrazolium (1.5 mM), sodium succinate (130 mM), phenazine methosulphate (0.2 mM), and sodium azide (0.1 mM) for 6 min at room temperature. The reaction was stopped by two washes in PBS. Slides were mounted using Fluoromont mounting medium (Thermofisher, 00-4958-02). All samples were processed successively using the same incubation solution ensuring that they underwent the exact same experimental conditions. Images of the tissues were taken with a bright field microscope. The intensity of the staining was analyzed with Image J.

For O=c1oc2cc(O)ccc2c2ccc(O)cc12 [Urolithin A], the “cardiac hypertrophy, calculated as heart weight over tibia length” value [1] was “reduces”, the “diastolic function, measured as isovolumetric relaxation time” value [1] was “improves” and the “systolic dysfunction measured as Ejection fraction” value [1] was “significantly improves”. The “systolic dysfunction measured as Fractional shortening” value [1] was “significantly improves”, the “gene sets repressed with MI (mitochondrial protein-containing complex, respirasome, nucleoids, peroxisomes), normalized enrichment score” value [2] was “induced” and the “increase in fractional shortening, after high-workload” value (Old C57BL/6 mice [3]; after high-workload) was “+39%”. The “increase in fractional shortening, basally” value (Old C57BL/6 mice [3]; basal) was “+32%”, the skeletal muscle function (Old C57BL/6 mice [4]) was “significantly prevents age-related decline” and the cristae number ([5]; heart mitochondria) was “significantly increases”. For the same compound, the cristae volume density ([5]; heart mitochondria) was “significantly increases”, the “mitophagy events, quantified as number of mitolysosomes” value ([5]; heart) was “significantly increases” and the mitochondrial area ([5]; heart, to levels compared to young animals) was “significantly increased”. The “gene sets repressed with aging (respirasome, sarcolemma), normalized enrichment score” value [6] was “induced” and the “SDH enzymatic activity in the heart” value [7] was “significantly increases”.
